Assay results from article PMC8448864, “Prolyl isomerase Pin1 plays an essential role in SARS-CoV-2 proliferation, indicating its possibility as a novel therapeutic target” (Scientific Reports, 2021).
Read-outs that look alike come from different tables or passages of the source.

Legend:
recombinant Pin1 protein = recombinant Pin1 protein (Homo sapiens, UniProt Q13526); assay: In vitro PPIase assay using recombinant Pin1 protein (method of Janowski et al., Eurofins Selcia); assay type: biochemical; conditions: for inhibition at 2 µM: concentration 2 µM; for inhibition at 20 µM: concentration 20 µM
Chain of recombinant Pin1 protein (Q13526 whole entry, species assumed): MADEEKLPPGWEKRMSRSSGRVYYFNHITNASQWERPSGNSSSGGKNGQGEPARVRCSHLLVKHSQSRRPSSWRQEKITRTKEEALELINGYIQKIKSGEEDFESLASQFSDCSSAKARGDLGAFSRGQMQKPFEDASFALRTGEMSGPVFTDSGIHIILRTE

SARS-CoV-2 [1] = assay: microbe, parasite or virus in culture; assay type: cell-based; conditions: for EC50: calculated using virus production at different drug concentrations
SARS-CoV-2 [2] = assay: Membrane fusion (CPE, syncytium formation) and fusion index of infected VeroE6/TMPRSS2 cells; assay type: cell-based; conditions: for Membrane fusion (CPE caused by viral infection): MOI 0.01, 24 h
Experimental: Figure 2 Pin1 inhibitor H-77 inhibits SARS-CoV-2 proliferation in a concentration-dependent manner. VeroE6/TMPRSS2 cells were pretreated with the indicated concentrations of H-77 for 2 h, and were subjected to SARS-CoV-2 infection (MOI of 0.01) followed by incubation for 24 h in the presence of the same concentrations of H-77. (A) Western blotting of cell lysates (Duplicate in the figure) with SARS-CoV-2 N, Pin1, and actin antibodies. Full-length blots are presented in Supplementary Fig. 4. (B) vRNA copies contained in 5 µL of the supernatant were quantified by RT-qPCR using authorized SARS-CoV-2 N primers (n = 3). (C) Fusion index calculated by counting numbers of cells and nuclei of infected cells after Giemsa straining. Approximately 100 nuclei and cell number per field were counted for each of five fields. Error bars indicate standard deviation. *P < 0.05, **P < 0.01, Mann–Whitney U test, compared with 0 µM (DMSO). (D) Representative images of SARS-CoV-2-infected VeroE6/TMPRSS2 cells at 24 h post-infection with the indicated concentrations of H-77.
The cells were then washed with PBS, fixed with methanol, and stained with Giemsa staining solution. The fusion index was calculated as [1-(number of cells/number of nuclei)] as described previously. Approximately 100 nuclei and cell number per field were counted, and the average fusion index of five fields was calculated.

SARS-CoV-2 [3] = assay type: cell-based; conditions: for SARS-CoV-2 proliferation: MOI 0.01, harvested 24 h after infection
Pin1 = test system: Pin1; design: method as in PMID 25849135; conditions: cited from earlier work
FKBP = test system: FKBP; design: method as in PMID 25849135; conditions: cited from earlier work
cyclophilin = test system: cyclophilin; design: method as in PMID 25849135; conditions: cited from earlier work
[4] = Severe acute respiratory syndrome coronavirus 2, VeroE6/TMPRSS2 cells, read-out: EC50 (50% effective concentration, SARS-CoV-2 proliferation)
[5] = 10 µM from 2 h before infection, 24 h after infection
[6] = Severe acute respiratory syndrome coronavirus 2, VeroE6/TMPRSS2, read-out: EC50 (50% effective concentration, SARS-CoV-2 proliferation), VeroE6/TMPRSS2 cells

O=C(Nc1ccc(OCc2ccc3ccccc3c2)cc1C(=O)O)c1ccc2ccccc2c1 [H-371]
inhibition at 2 µM (recombinant Pin1 protein): 80%
EC50 (SARS-CoV-2 [1]; [4]): 4.2 µM

O=C(Nc1ccc(OCc2ccccc2)cc1C(=O)O)c1ccc2ccccc2c1 [H-77]
Membrane fusion (CPE caused by viral infection) (SARS-CoV-2 [2]; concentrations above 7.5 μM): almost absent
Membrane fusion (CPE caused by viral infection) (SARS-CoV-2 [2]; drug concentration increased to 5 μM): less apparent
inhibition at 2 µM (recombinant Pin1 protein): 67%
inhibition at 20 µM (recombinant Pin1 protein): 82%
SARS-CoV-2 proliferation (SARS-CoV-2 [3]; 10 µM added 2 h after infection): almost completely blocked
SARS-CoV-2 proliferation (SARS-CoV-2 [3]; 10 µM added 6 h after infection): weaker but still significant inhibitory effect
Amount of genomic RNA released from the cells (vRNA in supernatant) (SARS-CoV-2 [3]; [5]): significantly reduced
Intracellular viral N mRNA (SARS-CoV-2 [3]; [5]): significantly reduced
EC50 (SARS-CoV-2 [1]; [6]): < 5 µM
EC50 (SARS-CoV-2 [1]; read-out: EC50 (50% effective concentration, SARS-CoV-2 proliferation), VeroE6/TMPRSS2 cells): 3.2 µM

O=C(O)c1cc(NC(=O)n2c3ccccc3c3ccccc32)cc(NC(=O)n2c3ccccc3c3ccccc32)c1 [H-596]
inhibition at 1 µM (recombinant Pin1 protein; concentration 1 µM): 13%
inhibition at 10 µM (recombinant Pin1 protein; concentration 10 µM): 101%
EC50 (SARS-CoV-2 [1]; [4]): 5.2 µM

O=C(O)[C@@H](Cc1ccc2ccccc2c1)OC(=O)n1c2ccccc2c2ccccc21 [H-175]
inhibition at 20 µM (recombinant Pin1 protein): 89%
EC50 (SARS-CoV-2 [1]; [4]): 12 µM

O=C(Nc1ccc(OCc2ccccc2)cc1C(=O)O)c1cccc(Oc2ccccc2)c1 [H-363]
inhibition at 20 µM (recombinant Pin1 protein): 82%
EC50 (SARS-CoV-2 [1]; [4]): 6.3 µM

O=C1C=CC(=O)c2c(O)cccc21 [Juglone]
Cell survival (VeroE6/TMPRSS2 cells): unable to survive

CC1=C(/C=C/C(C)=C/C=C/C(C)=C/C(=O)O)C(C)(C)CCC1 [ATRA, all-trans retinoic acid, reference compound]
CPE of SARS-CoV-2 (SARS-CoV-2 [2]; VeroE6/TMPRSS2 cells): alleviated
Activity of Pin1 (Pin1): inhibits
Activity of FKBP (FKBP): does not affect
Activity of cyclophilin (cyclophilin): does not affect
EC50 (SARS-CoV-2 [1]; [6]): 17.9 µM
SARS-CoV-2 protein and viral RNA levels (SARS-CoV-2 [1]; concentration-dependent, pretreated 2 h, MOI 0.01, 24 h): marked reductions
